Laboratory results as given in US20220409692A1, “Systems Chemico-Pharmacology Drugs and Methods of Use” (The Medical College of Wisconsin, priority 2019, published 2022).

Key:
HMGB1 = molecular target: T1, HMGB1 (Homo sapiens, UniProt P09429); experiment: Streptavidin-affinity blot of B-KYC thiylated recombinant HMGB1 and MPO in MPO reaction mixture; format: biochemical; conditions: split sample, DTT 100 mM
T1 sequence (P09429 1-215): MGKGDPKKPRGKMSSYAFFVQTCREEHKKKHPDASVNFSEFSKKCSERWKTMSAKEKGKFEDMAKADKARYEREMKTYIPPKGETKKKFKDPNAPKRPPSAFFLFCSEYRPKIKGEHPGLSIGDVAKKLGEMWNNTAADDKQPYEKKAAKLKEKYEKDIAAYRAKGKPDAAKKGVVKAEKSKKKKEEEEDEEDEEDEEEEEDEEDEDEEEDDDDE
Procedure: FIG. 30. MPO Oxidizes KYC to a KYC Thiyl Radical That Thiylates HMGB1. (A) ESR spectrum of KYC thiyl S°-DMPO generated by an MPO reaction mixture containing MPO (120 nM), H2O2 (50 μM) and KYC (30 μM). (B) Streptavidin-affinity blot of KYC thiylated HMGB1 and MPO in a split sample, one half treated neat and other half treated with DTT (100 mM) to reduce disulfide bonds.
This spectrum is similar to the spectrum of DMPO-S◯-YC generated when the dipeptide YC was added to an MPO reaction mixture containing DMPO [34].
Previously we reported that KYC reduced MPO-dependent oxidative damage because KYC competes with native substrates, such as chloride and nitrite, that are oxidized to “toxic” oxidants. In 2013, we argued that KYC reduced MPO-dependent oxidative damage because the resultant KYC thiyl radical would autoscavenge to prevent radical propagation. […] To determine the radical mechanisms mediating MPO oxidation of KYC and KYC thiylation of HMGB1, we performed two experiments. In the first experiment, we trapped KYC thiyl radicals generated by MPO with DMPO (FIG. 30A), which confirms our conclusions in 2013 [27]. In the second experiment, we added recombinant HMGB1 to PBS containing MPO+H2O2+B-KYC and determined KYC thiylation by streptavidin affinity blotting. […]

RLMVEC = experiment: KYC thiylation of endothelial cell proteins in RLMVEC cultures; format: cell-based, rat
Text: FIG. 29. Effects of Oxidative Stress on KYC Thiylation of RLMVEC Proteins. (A) Streptavidin affinity blot of KYC thiylated proteins from cell lysates prepared from RLMVEC cultures treated with B-KYC (baseline), B-KYC+MPO+H2O2 (MPO-dependent), and B-KYC+H2O2 (H2O2-dependent). (B) Immunoblot for Nrf2 in RLMVEC cultures treated as described in A. (C) Immunoblot for Keap1 in RLMVEC cultures treated as described in A. (D) Immunoblot for HMGB1 in RLMVEC cultures treated as described in A.(E) Immunoblot for β-Actin in RLMVEC cultures treated as described in A.(F) Bar chart showing relative levels of KYC thiylation, Nrf2, Keap1, and HMGB1 as a function of β-Actin (n=2, *=p<0.05, statistical analysis was preformed by ANOVA with appropriate post hoc tests).
FIG. 31. MPO Oxidation of KYC Increases KYC Thiylation of Extracellular HMGB1. […] This conclusion is based on the relative levels of KYC thiylated HMGB1 in panel A vs. KYC thiylated HMGB1 as a function of HMGB1 protein in conditioned media vs. RLMVEC cell lysates.
Rat lung microvascular endothelial cells (RLMVEC) from neonatal Sprague-Dawley rats (RN-6011) and rat endothelial growth medium (EGM, M1266SF) were from Cell Biologics (Chicago, Ill.). Amicon®Ultra-4 centrifugal concentrators with 3K cut-off (UFC800324) were from Merck Millipore Ltd (Carrigtwohill, Ireland). PierceTM Streptavidin (#88816), Protein G (#88848), Protein A Magnetic Beads (#88845), PierceTM ECL Western Blotting Substrate (#32106), and SuperSignalTM West Femto Maximum Sensitivity Substrate (#34095) were from Thermo Fisher Scientific (Waltham, MA). Rabbit antibodies for myeloperoxidase heavy chain (MPO, sc-33596) and TLR4 (sc-10741) were from Santa Cruz Biotechnology (Dallas, Texas). Rabbit antibody for Cl-Tyr (HP5002) was from Hycult Biotech (Plymouth Meeting, PA). The chicken antibody for HMGB1 (326052233) was from SHINO-TEST Corporation (Kanagawa, Japan). Rabbit antibody for RAGE (GTX23611) was from GeneTex (Irvine, CA). Mouse antibodies for PECAM-1/CD31 (ab24590), for 8-OH-dG (ab48508), and for rat endothelial cell antigen-1 (RECA-1, ab9774) were from Abcam (Cambridge, MA). Rabbit antibody for Cox1 (sc-7950) and Cox2 (sc-7951) were from Santa Cruz Biotechnology. Mouse (ab190377) and rabbit (ab77302b) antibodies for HMGB1, and streptavidin-HRP (ab7403) were from Abcam (Cambridge, Mass.). Rabbit antibody for acetylated-HMGB1 (OASG03545) was from Aviva System Biology (San Diego, Calif.). Rabbit antibodies for Nrf2 (sc-722) and TLR4 (sc-30002) were from Santa Cruz Biotechnology (Dallas, Tex.). Rabbit antibody against Keap1 (ABS97) and mouse antibody for β-actin (A2228) were from Millipore-Sigma (St. Louis, Mo.). Rabbit antibody for cysteine sulfonyl (ADI-OSA-820) was from Enzo Life Sciences (Farmingdale, N.Y.). Mouse antibody for glutathionylated proteins (D8) and all other chemicals were from Sigma-Aldrich (St. Louis, Mo.). All antibodies were certified either by the manufacturer or were used previously and certified by the authors, as was the case for the anti-HMGB1 antibody.
Effects of Oxidative Stress on KYC Thiylation on Endothelial Cell Proteins in RLMVEC Cultures: To determine the effects of oxidative stress on KYC thiylation, RLMVEC cultures were treated with B-KYC to follow KYC thiylation with streptavidin-affinity blotting as outlined in Methods. Three different levels of oxidative stress were used to determine the effects of oxidative stress on KYC thiylation of endothelial cell proteins: media alone (baseline); media containing MPO+H2O2 (MPO-dependent); and media containing H2O2 alone (H2O2-dependent) (FIG. 29A). KYC thiylation of RLMVEC proteins at baseline was low (FIG. 29A, first two lanes).

MPO = molecular target: T2, MPO (Homo sapiens, UniProt P05164); experiment: KYC/AA(n) peptide inhibition of MPO HOCl production (TMB assay) at varied pH; format: biochemical; conditions: regardless of pH
T2 sequence (P05164 49-745): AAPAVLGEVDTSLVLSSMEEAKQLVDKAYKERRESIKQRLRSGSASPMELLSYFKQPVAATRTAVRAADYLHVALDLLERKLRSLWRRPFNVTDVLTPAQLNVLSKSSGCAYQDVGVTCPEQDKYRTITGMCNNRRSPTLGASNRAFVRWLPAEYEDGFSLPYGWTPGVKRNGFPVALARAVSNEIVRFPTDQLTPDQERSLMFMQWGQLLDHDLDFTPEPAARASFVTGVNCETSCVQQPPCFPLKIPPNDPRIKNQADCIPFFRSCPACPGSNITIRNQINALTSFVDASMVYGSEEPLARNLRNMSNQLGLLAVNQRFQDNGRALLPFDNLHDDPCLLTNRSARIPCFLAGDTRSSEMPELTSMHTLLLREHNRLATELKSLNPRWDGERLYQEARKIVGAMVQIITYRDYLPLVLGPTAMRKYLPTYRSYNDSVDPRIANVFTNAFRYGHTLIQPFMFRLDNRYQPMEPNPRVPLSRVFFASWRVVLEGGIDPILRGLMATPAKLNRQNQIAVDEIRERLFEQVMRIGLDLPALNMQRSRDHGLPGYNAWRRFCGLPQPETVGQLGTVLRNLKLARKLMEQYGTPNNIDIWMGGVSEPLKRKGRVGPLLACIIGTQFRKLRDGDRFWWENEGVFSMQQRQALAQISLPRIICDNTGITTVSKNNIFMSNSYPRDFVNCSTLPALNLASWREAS
Text: Small peptides of generic formula AA(n) (where AA represents different amino acids, and n can be 2-5) are both substrates and inhibitors of MPO (alternatively, inhibitors of EPO). These peptides are […] at the active site of MPO, which subsequently decreases the production of toxic oxidants that includes but not restricted to hypochlorous acid. All MPO activities (i.e., hypochlorous acid production) described herein were quantified by the 3,3′,5,5′-tetramethylbenzidine (TMB) assay. […] The free radical itself may act as an activated species, and is stable enough to react with proximal proteins, peptides, metabolites or small molecules to effect further change. The free radical is not limited to a single target, but may effect change multiple independent targets. In a non-limiting example, the free radical goes on to form a hetero- or homo dimer via an oxidized —S—S— disulfide (or di-Selenium) linkage. Finally, the more interactions between the peptide and active site of MPO that occurs the lower numerical IC50 value of the peptide inhibitor.
KYZ is […] in the presence of MPO, which subsequently decreases the production of hypochlorous acid. All MPO activities (i.e., hypochlorous acid production) were quantified by the 3,3′,5,5′-tetramethylbenzidine (TMB) assay. The tripeptide KXZ, requires amino acid #1 (AA1, K) to be a native amino acid or an artificial amino acid (aa) with a basic side-chain such as an amine functional group (e.g., Lysine (K)). Amino acid #2 (AA2, X) is a native or artificial amino acid that may contain a polar, non-polar, or aromatic amino acid.

Substance | fluorescent band density of B-KYC thiylated HMGB1 and MPO (HMGB1) | KYC thiylation of RLMVEC proteins (RLMVEC; H2O2-dependent (media containing H2O2 alone)) | KYC thiylation of RLMVEC proteins (RLMVEC; MPO-dependent (media containing MPO+H2O2)) | KYC thiylation of RLMVEC proteins (RLMVEC; baseline (media alone)) | inhibitory properties (IC50) KVC versus KVVC (MPO)
biotin-aminohexanoyl-N-[Ahx]-KYC-amide [B-KYC] | decreased in the sample treated with dithiothreitol | more than observed at baseline, but not as high as MPO-dependent B-KYC thiylation | markedly increased | low | –
Ac-KVVC-amide [N-acetylated, C-amidated AA(n) peptide, KVC with an added amino acid] | – | – | – | – | improvement of inhibitory properties
